Experimental data reported in US20250114369A1, “COMPOUNDS AND METHODS FOR TREATMENT OF VIRAL INFECTIONS” (Gilead Sciences, Inc., priority 2023, published 2025).

Tests used:
in vitro [1] = format: in vitro ADME; details: human, s9, pH 7.4
Procedure: Duplicate aliquots of test compound or positive control substrate (GS-7340) were added to PMSF-free Intestinal S9 fractions diluted with 100 mM phosphate buffered saline, pH 7.4, to obtain a protein concentration of 1.0 mg/mL. The S9 metabolic reactions were initiated by the addition of the substrates to the S9 reaction mixture to a final concentration of 2 μM. At 0, 10, 20, 30, 60 and 120 min, 25 μL aliquots of the reaction mixture were transferred to plates containing 225 μl of IS/Q solution. After quenching, the plates were centrifuged at 3000×g for 30 minutes, and 150 μL aliquots of each supernatant were diluted with 150 μL water. Aliquots (10 μL) of the diluted supernatant were analyzed on a Thermo Q-Exactive mass spectrometer as described below. Quantification of test compounds and controls was performed by analyte/internal standard peak area ratio (PAR) values measured on a Thermo Q-Exactive mass spectrometer coupled to a Dionex UltiMate 3000 HPLC with a Leap Technologies HTC PAL autosampler. The column used was a Thermo Hypersil GOLD (1.9 μm particle size, 2.1×50 mm). Mobile phase A consisted of […] formic acid in water. Mobile phase B consisted of 0.1% (v/v) formic acid in acetonitrile. Elution of analytes was achieved by a series of linear gradients of acetonitrile in water containing 0.1% (v/v) formic acid. The mass spectrometer was calibrated on a weekly basis and mass tolerance of 5 ppm was used.

in vitro [2] = format: in vitro ADME; details: human, s9, pH 7.4; remark: listed apart in the source
Procedure: Duplicate aliquots of test compound or positive control substrate (GS-7340) were added to S9 stock diluted with 100 mM potassium phosphate buffer, pH 7.4, to obtain a protein concentration of 2.4 mg/mL. The S9 metabolic reactions were initiated by the addition of the substrates to the S9 reaction mixture to a final concentration of 2 μM. At 2, 12, 25, 45, 65 and 90 min, 25 μL aliquots of the reaction mixture were transferred to plates containing 225 μl of IS/Q solution. After quenching, the plates were centrifuged at 3000×g for 30 minutes, and 150 μL aliquots of each supernatant were diluted with 150 μL water. Aliquots (10 μL) of the diluted supernatant were analyzed on a Thermo Q-Exactive mass spectrometer as described below. Quantification of test compounds and controls was performed by analyte/internal standard peak area ratio (PAR) values measured on a Thermo Q-Exactive mass spectrometer coupled to a Dionex UltiMate 3000 HPLC with a Leap Technologies HTC PAL autosampler. The column used was a Thermo Hypersil GOLD (1.9 μm particle size, 2.1×50 mm). Mobile phase A consisted of […] formic acid in water. Mobile phase B consisted of 0.1% (v/v) formic acid in acetonitrile. Elution of analytes was achieved by a series of linear gradients of acetonitrile in water containing 0.1% (v/v) formic acid. The mass spectrometer was calibrated on a weekly basis and mass tolerance of 5 ppm was used.

[3] = system: Respiratory syncytial virus recombinant with luciferase (RSV-Luc5); assay: microbe, parasite or virus in culture; format: cell-based; details: human respiratory syncytial virus, NHBE, 72 h, read-out: RSV NHBE EC50 (nM)
in vitro [4] = format: cell-based; details: human
Procedure: Cytotoxicity of the compounds was determined in uninfected cells using the cell viability reagent in a similar fashion as described before for other cell types (Cihlar et al., Antimicrob Agents Chemother. 2008, 52(2):655-65). HEp-2 (1.5×10^3 cells/well) and MT-4 (2×10^3 cells/well) cells were plated in 384-well plates and incubated with the appropriate medium containing 3-fold serially diluted compound ranging from 15 nM to 100,000 nM. Cells were cultured for 4-5 days at 37° C. Following the incubation, the cells were allowed to equilibrate to 25° C., and cell viability was determined by adding Cell-Titer Glo viability reagent. The mixture was incubated for 10 min, and the luminescence signal was quantified using an Envision plate reader. Untreated cell and cells treated at 2 μM puromycin (Sigma, St. Louis, MO) serve as […] cell viability control, respectively. The percent of cell viability was calculated for each tested compound concentration relative to the 0% and 100% controls and the CC50 value was determined by non-linear regression as a compound concentration reducing the cell viability by […].

[5] = system: SARS Coronavirus 2 recombinant with NanoLuc (SARS-CoV2-NLuc); assay: organism not typed; format: cell-based; details: 48 h
[6] = format: in vitro ADME; details: 2 μM
Procedure: Duplicate aliquots of plasma were warmed to 37° C. and the metabolic reactions initiated by the addition of test compound (6 μL of 0.1 mM DMSO stock) or plasma stability standard (GS-7340) to obtain a final substrate concentration of 2 μM. At 0.05, 0.5, 1, 2, 3 and 4 hr, 25 μL aliquots of the reaction mixture were transferred to plates containing 225 μl of IS/Q quenching solution. After quenching, the plates were centrifuged at 3000×g for 30 minutes, and 150 μL supernatant was diluted with 150 μL water. Aliquots (10 μL) of the diluted supernatant were analyzed on a Thermo Q-Exactive mass spectrometer as described below. Quantification of test compounds and controls was performed by analyte/internal standard peak area ratio (PAR) values measured on a Thermo Q-Exactive mass spectrometer coupled to a Dionex UltiMate 3000 HPLC with a Leap Technologies HTC PAL autosampler. The column used was a Thermo Hypersil GOLD (1.9 μm particle size, 2.1×50 mm). Mobile phase A consisted of […] formic acid in water. Mobile phase B consisted of 0.1% (v/v) formic acid in acetonitrile. Elution of analytes was achieved by a series of linear gradients of acetonitrile in water containing 0.1% (v/v) formic acid. The mass spectrometer was calibrated on a weekly basis and mass tolerance of 5 ppm was used.

[7] = system: Caco-2 cells (clone C2BBel); assay: CACO-2 permeability; format: in vitro ADME; details: donor pH 6.5, receiver pH 7.4; for DM Caco2 A to B: forward (A to B); for DM Caco2 B to A: reverse (B to A)
Procedure: Pre-plated Caco-2 cells (clone C2BBel) were obtained from Sigma-Aldrich, Inc. (Atlanta, GA). Cell monolayers were grown to confluence on collagen-coated, microporous, polycarbonate membranes in 24-well transwell plates for 21 days. The permeability assay buffer in donor wells was Hanks' balanced salt solution (HBSS) containing 10 mM HEPES and 15 mM glucose at a pH of 6.5 containing 200 μM BNPP. The receiver wells used HBSS buffer containing 10 mM HEPES and 15 mM glucose at a pH of 7.4 and supplemented with 1% BSA. After an initial equilibration with transport buffer, TEER values were read to test membrane integrity. The experiment was started by the addition of buffers containing test compounds, 200 μl and 1000 μl in the apical and basolateral chamber, respectively. At 0- and 2-hour post dose, 10 μL was sampled from donor compartment and was immediately diluted in 190 μL of 20% methanol. At 1 and 2 hours post dose, 100 μl of solution was taken from the receiver compartments and was immediately diluted in 100 μl of 20% methanol. Removed buffer was replaced with fresh buffer and a correction was applied to all calculations for the removed material. Each compound was tested in 2 separate replicate wells for each condition. All samples were then extracted with 400 μl 100% acetonitrile with internal standard to precipitate protein. Cells were dosed on the apical or basolateral side to determine forward (A to B) and reverse (B to A) permeability. To test for non-specific binding and compound instability, the total amount of drug was quantitated at the end of the experiment and compared to the material present in the original dosing solution as a percent recovery. Formation of the parent compound (GS-441524; Reference Compound A) was monitored in assay wells dosed with the prodrug. Samples were analyzed by LC-MS/MS.
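Throughout, for CC50: uninfected MT-4 cells over 4-5 days by CellTiter-Glo.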

N#C[C@@]1(c2ccc3c(N)ncnn23)O[C@H](COC(=O)SC2CCCC2)[C@@H](O)[C@H]1O [Compound 16, [(2R,3S,4R,5R)-5-(4-aminopyrrolo[2,1-f][1,2,4]triazin-7-yl)-5-cyano-3,4-dihydroxy-tetrahydrofuran-2-yl]methyl cyclopentylsulfanylformate]
half-life at 2 μM (in vitro [1]): 3.4 min | half-life at 2 μM (in vitro [2]): 6.2 min | EC50 [3]: 2810 nM | CC50 (in vitro [4]): 49.9 µM | EC50 [5]: 8.75 µM

CCCSC(=O)OC[C@H]1O[C@@](C#N)(c2ccc3c(N)ncnn23)[C@H](O)[C@@H]1O [Compound 14, [(2R,3S,4R,5R)-5-(4-aminopyrrolo[2,1-f][1,2,4]triazin-7-yl)-5-cyano-3,4-dihydroxy-tetrahydrofuran-2-yl]methyl propylsulfanylformate]
half-life at 2 μM (in vitro [1]): 5.12 min | STA Human Plasma 37 [6]: 495.99 | EC50 [3]: 2620 nM | DM Caco2 A to B [7]: 2.06 | DM Caco2 B to A [7]: 9.1 | CC50 (in vitro [4]): > 50 µM | EC50 [5]: 11.7 µM

N#C[C@@]1(c2ccc3c(N)ncnn23)O[C@H](COC(=O)N2CCCO2)[C@@H](O)[C@H]1O [Compound 12, [(2R,3S,4R,5R)-5-(4-aminopyrrolo[2,1-f][1,2,4]triazin-7-yl)-5-cyano-3,4-dihydroxy-tetrahydrofuran-2-yl]methyl isoxazolidine-2-carboxylate]
half-life at 2 μM (in vitro [1]): 85 min | STA Human Plasma 37 [6]: 938.47 | EC50 [3]: 35300 nM | DM Caco2 A to B [7]: 0.08 | DM Caco2 B to A [7]: 0.36 | CC50 (in vitro [4]): > 50 µM | EC50 [5]: > 50 µM

CCSC(=O)OC[C@H]1O[C@@](C#N)(c2ccc3c(N)ncnn23)[C@H](O)[C@@H]1O [Compound 15, [(2R,3S,4R,5R)-5-(4-aminopyrrolo[2,1-f][1,2,4]triazin-7-yl)-5-cyano-3,4-dihydroxy-tetrahydrofuran-2-yl]methyl ethylsulfanylformate]
half-life at 2 μM (in vitro [1]): 16.4 min | STA Human Plasma 37 [6]: 451.78 | EC50 [3]: 5650 nM | DM Caco2 A to B [7]: 1.51 | DM Caco2 B to A [7]: 7.08 | CC50 (in vitro [4]): > 50 µM | EC50 [5]: 19.7 µM

N#C[C@@]1(c2ccc3c(N)ncnn23)O[C@H](COC(=O)N2C(=O)OC[C@@H]2Cc2ccccc2)[C@@H](O)[C@H]1O [Compound 4, [(2R,3S,4R,5R)-5-(4-aminopyrrolo[2,1-f][1,2,4]triazin-7-yl)-5-cyano-3,4-dihydroxy-tetrahydrofuran-2-yl]methyl (4S)-4-benzyl-2-oxo-oxazolidine-3-carboxylate]
half-life at 2 μM (in vitro [1]): ≥ 789 min | STA Human Plasma 37 [6]: 253.23 | EC50 [3]: > 50000 nM | DM Caco2 A to B [7]: 0.12 | DM Caco2 B to A [7]: 0.94 | CC50 (in vitro [4]): > 50 µM | EC50 [5]: > 50 µM

CC(C)(C)SC(=O)OC[C@H]1O[C@@](C#N)(c2ccc3c(N)ncnn23)[C@H](O)[C@@H]1O [Compound 17, [(2R,3S,4R,5R)-5-(4-aminopyrrolo[2,1-f][1,2,4]triazin-7-yl)-5-cyano-3,4-dihydroxy-tetrahydrofuran-2-yl]methyl tert-butylsulfanylformate]
half-life at 2 μM (in vitro [1]): 44.5 min | STA Human Plasma 37 [6]: 1343.5 | EC50 [3]: 8110 nM | DM Caco2 A to B [7]: 3.05 | DM Caco2 B to A [7]: 15.63 | CC50 (in vitro [4]): 49.8 µM | EC50 [5]: ≥ 50 µM

N#C[C@@]1(c2ccc3c(N)ncnn23)O[C@H](COC(=O)N2CCS(=O)(=O)CC2)[C@@H](O)[C@H]1O [Compound 11, [(2R,3S,4R,5R)-5-(4-aminopyrrolo[2,1-f][1,2,4]triazin-7-yl)-5-cyano-3,4-dihydroxy-tetrahydrofuran-2-yl]methyl 1,1-dioxo-1,4-thiazinane-4-carboxylate]
half-life at 2 μM (in vitro [1]): 779 min | STA Human Plasma 37 [6]: 1584 | EC50 [3]: > 50000 nM | DM Caco2 A to B [7]: 0.08 | DM Caco2 B to A [7]: 0.11 | CC50 (in vitro [4]): > 50 µM | EC50 [5]: > 50 µM

CC(=O)O[C@H]1[C@@H](OC(C)=O)[C@](C#N)(c2ccc3c(N)ncnn23)O[C@@H]1COC(=O)NC(C)C [Compound 18, [(2R,3R,4R,5R)-4-acetoxy-5-(4-aminopyrrolo[2,1-f][1,2,4]triazin-7-yl)-5-cyano-2-(isopropylcarbamoyloxymethyl)tetrahydrofuran-3-yl]acetate]
half-life at 2 μM (in vitro [1]): 0.581 min | STA Human Plasma 37 [6]: 16.014 | EC50 [3]: > 50000 nM | DM Caco2 A to B [7]: 0.8 | DM Caco2 B to A [7]: 6.91 | CC50 (in vitro [4]): > 50 µM | EC50 [5]: > 50 µM

CC(C)[C@H](NC(=O)OC[C@H]1O[C@@](C#N)(c2ccc3c(N)ncnn23)[C@H](O)[C@@H]1O)C(=O)O [Compound 6, ((((2R,3S,4R,5R)-5-(4-aminopyrrolo[2,1-f][1,2,4]triazin-7-yl)-5-cyano-3,4-dihydroxytetrahydrofuran-2-yl)methoxy)carbonyl)-L-valine]
half-life at 2 μM (in vitro [1]): ≥ 792 min | STA Human Plasma 37 [6]: 1584 | EC50 [3]: > 50000 nM | DM Caco2 A to B [7]: 0.05 | DM Caco2 B to A [7]: 0.07 | CC50 (in vitro [4]): > 50 µM | EC50 [5]: > 50 µM
